Data on four compounds can be found in EP2439188B1, “p-Menthane-3,8-diol derivatives and insect repellents comprising them” (priority 2010, dated 2012).

Read-outs that look alike come from different tables or passages of the source.

A short description of one data set: Solubility in water. It is filed as physicochemical. The text has this:
Tabelle 1 zeigt die Wasserlöslichkeit der erfindungsgemäßen Verbindung PMD-S (para-Menthane-3,8-diol Succinat) im Vergleich zu üblichen in Insektenschutzmitteln eingesetzten Wirkstoffen. Tabelle 1

In another data set the test system is HeLa-Zellen. Nature of the data set: cells. It is filed as cell-based. The note with it: Homo sapiens, concentration at which 50 % of the cells die, relative to untreated control cells. An excerpt: (§1) Hierzu wurden Zytotoxizitätsstudien an HeLa-Zellen und an Keratinozyten (SK-Mel-28) durchgeführt. Erstere Tests gelten als gute Alternative zu in vivo Draize Augenreizungstests, während letztere ein gutes Modell für die Hautkompatibilität sind.

In data set [1] the test system is Keratinozyten (SK-Mel-28). The experiment in a line: cells. In kind it is cell-based. The note with it: Homo sapiens, SK-MEL-28, SK-Mel-28; concentration at which 50 % of the cells die, relative to untreated control cells; read-out: Keratinocyten Zellen IC50.
Text: as §1

Consider `CC[C@@H](C)OC(=O)N1CCCC[C@@H]1CCO` (racemic) [KBR 3023, (RS)-sec-butyl-(RS)-2-(2hydroxyethyl) piperidine-1-carboxylat], for which, in “Solubility in water” (bei 20°C), the “Löslichkeit in Wasser” value amounted to 8.2 g/L bei 20 °C.

With `CCN(CC)C(=O)c1cccc(C)c1` [DEET, N,N-Diethyl-m-methylbenzamid], the values for the IC50 (with HeLa-Zellen; in data set [1]) were 12.4 ± 1.89 µM and 8.1 ± 3.41 µM, respectively. For the same compound, the “Löslichkeit in Wasser” value in “Solubility in water” amounted to 1 g/L bei 25 °C.

Consider `CCCCN(CCC(=O)OCC)C(C)=O` [IR 3535, Ethyl-3-[(acetyl)(butyl)amino]propanoat], for which the IC50 – broadly, the concentration that gives 50% inhibition – in the data set with HeLa-Zellen came out at 12.5 ± 1.17 µM; in data set [1] it was 17.5 ± 2.76 µM. In the data set “Solubility in water”, the “Löslichkeit in Wasser” value is 70 g/L bei 20 °C.

In the case of `CC1CCC(C(C)(C)O)C(O)C1` (stereo not drawn) [PMD, para-Menthan-3,8-diol], in data set [1], the IC50 amounted to 14.2 ± 5.23 µM. Moreover, the “Löslichkeit in Wasser” value in the data set “Solubility in water” (bei 25°C) is 0.29 g/L bei 25 °C.
